The values that follow come from patent US10024845B2, “Methods for determining modulators of insect transient receptor potential V (TRPV) channel” (BASF SE, priority 2013, dated 2018).

Entries after “also recorded” stand apart in the source; their conditions may differ. Read-outs that look alike come from different tables or passages of the source.

In assay [1] the test system is insect TRPV channel (Drosophila Nanchung and Inactive co-expressed). The format is cell-based. The following applies: for Response of cells (fluorescence units), Insect TRPV cells: single high dose 20 μM; for Ca2+ mobilization in cells co-expressing Nan and Iav (insect TRPV channel), in words: FLUO4 probe; for Dependence of the cell response on Ca2+ in the extracellular media: insect TRPV-expressing cells; for Inhibition of stimulation of the insect TRPV channel: cell-impermeable ion channel blocker.

The test system of assay [2] is parental CHO-K1 cells. The assay is classed as cell-based, hamster.
Assay [3] has as its target mouse TRPV4 (mTRPV4) (Mus musculus, UniProt Q9EPK8). Kind of assay: Ca2+ mobilization (FLUO4, FLIPR) in CHO-K1 cells expressing mTRPV4. The format is cell-based. The following applies: for Ca2+ mobilization in cells expressing mTRPV4, in words: FLUO4 probe. (Calcium flux is commonly read through the fluorescence of an indicator in the cells.)
Setting [4] is: CHO-K1 cells expressing insect TRPV.
[5] abbreviates: single high dose 20 μM, parental CHO-K1 cells.
Setting [6] is: single high dose 20 μM, CHO-K1 cells expressing mTRPV4.
[7] abbreviates: listed as metabolite B of Pyrifluquinazon.

mouse TRPV4 (mTRPV4), sequence (Q9EPK8 whole entry): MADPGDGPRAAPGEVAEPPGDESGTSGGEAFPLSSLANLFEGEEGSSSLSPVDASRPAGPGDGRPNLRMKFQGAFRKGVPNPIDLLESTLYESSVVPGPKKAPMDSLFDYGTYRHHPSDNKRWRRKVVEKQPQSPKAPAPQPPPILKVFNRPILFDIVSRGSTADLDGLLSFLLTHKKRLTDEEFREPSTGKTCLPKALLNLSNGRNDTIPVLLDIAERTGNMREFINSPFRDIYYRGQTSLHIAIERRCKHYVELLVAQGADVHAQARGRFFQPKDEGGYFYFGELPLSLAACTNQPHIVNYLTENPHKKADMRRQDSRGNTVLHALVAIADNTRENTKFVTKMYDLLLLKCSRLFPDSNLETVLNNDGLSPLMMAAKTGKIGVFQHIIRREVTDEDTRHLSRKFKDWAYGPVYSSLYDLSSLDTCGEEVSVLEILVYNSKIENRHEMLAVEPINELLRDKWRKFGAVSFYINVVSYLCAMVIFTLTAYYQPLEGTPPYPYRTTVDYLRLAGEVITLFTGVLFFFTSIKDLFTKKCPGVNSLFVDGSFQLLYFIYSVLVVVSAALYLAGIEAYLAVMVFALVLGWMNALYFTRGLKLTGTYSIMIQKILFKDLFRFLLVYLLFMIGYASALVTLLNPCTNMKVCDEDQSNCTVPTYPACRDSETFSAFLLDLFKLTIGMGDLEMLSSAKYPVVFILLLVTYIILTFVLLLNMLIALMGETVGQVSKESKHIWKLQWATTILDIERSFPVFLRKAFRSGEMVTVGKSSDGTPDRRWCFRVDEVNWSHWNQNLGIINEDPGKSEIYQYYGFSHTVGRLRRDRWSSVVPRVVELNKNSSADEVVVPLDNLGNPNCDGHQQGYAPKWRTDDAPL

For `CC(=O)OCC[N+](C)(C)C` [Acetylcholine], in assay [1] (setting [4]), the “Response of cells (fluorescence units), Insect TRPV cells” value (“Response of cells … Insect TRPV cells” below) was 250 fluorescence units. Moreover, in assay [2] (setting [5]), the “Response of cells (fluorescence units), Parental CHO cells” value (shortened to “Response of cells … Parental CHO cells”) turned out to be 797 fluorescence units.

In the case of `Cc1ccc(/N=C/N(C)/C=N/c2ccc(C)cc2C)c(C)c1` [Amitraz], the “Response of cells … Insect TRPV cells” value in assay [1] (setting [4]) was 58 fluorescence units. Further, in assay [3] (setting [6]), the “Response of cells (fluorescence units), mTRPV4 cells” value (from here on “Response of cells … mTRPV4 cells”) came out at 25 fluorescence units. Also, the “Response of cells … Parental CHO cells” value in assay [2] (setting [5]) stood at 50 fluorescence units.

For the molecule `Clc1cccc(Cl)c1N=C1NCCN1` [Clonidine], in assay [1] (setting [4]), the “Response of cells … Insect TRPV cells” value came to 135 fluorescence units. Besides, the “Response of cells … mTRPV4 cells” value in assay [3] was 62 fluorescence units. Also, in assay [2], the “Response of cells … Parental CHO cells” value is recorded as 136 fluorescence units.

For the molecule `ClC1=C(Cl)[C@]2(Cl)[C@@H]3[C@@H]4C[C@@H]([C@H]5O[C@@H]45)[C@@H]3[C@@]1(Cl)C2(Cl)Cl` [Dieldrin], the “Response of cells … Insect TRPV cells” value in assay [1] (setting [4]) is listed as 78 fluorescence units. Moreover, the “Response of cells … mTRPV4 cells” value in assay [3] (setting [6]) is recorded as 52 fluorescence units. For the same molecule, in assay [2] (setting [5]), the “Response of cells … Parental CHO cells” value came to 73 fluorescence units.

With `CN/C(=N/CC1CCOC1)N[N+](=O)[O-]` (centres unmarked) [Dinotefuran], the “Response of cells … Insect TRPV cells” value in assay [1] (setting [4]) came out at 48 fluorescence units. In addition, the “Response of cells … mTRPV4 cells” value in assay [3] (setting [6]) was determined as 23 fluorescence units. In addition, in assay [2], the “Response of cells … Parental CHO cells” value is 23 fluorescence units.

Take `Clc1ccc(C2CC3CCC2N3)cn1` (centres unmarked) [Epibatidine]: the “Response of cells … Insect TRPV cells” value in assay [1] ([…]) is reported as 70 fluorescence units. For the same molecule, the “Response of cells … mTRPV4 cells” value in assay [3] (setting [6]) came to 63 fluorescence units. Besides, in assay [2] (setting [5]), the “Response of cells … Parental CHO cells” value turned out to be 49 fluorescence units.

Take `CC[S+]([O-])c1c(C#N)nn(-c2c(Cl)cc(C(F)(F)F)cc2Cl)c1N` (centres unmarked) [Ethiprole]: the “Response of cells … Insect TRPV cells” value in assay [1] (setting [4]) is reported as 154 fluorescence units. The “Response of cells … mTRPV4 cells” value in assay [3] (setting [6]) is on record as 113 fluorescence units. For the same molecule, the “Response of cells … Parental CHO cells” value in assay [2] (setting [5]) was 357 fluorescence units.

As for `N#Cc1nn(-c2c(Cl)cc(C(F)(F)F)cc2Cl)c(N)c1[S+]([O-])C(F)(F)F` (centres unmarked) [Fipronil], the “Response of cells … Insect TRPV cells” value in assay [1] (setting [4]) worked out at 133 fluorescence units. Besides, the “Response of cells … mTRPV4 cells” value in assay [3] (setting [6]) was found to be 60 fluorescence units. Also, the “Response of cells … Parental CHO cells” value in assay [2] (setting [5]) is reported as 240 fluorescence units.

Consider `NCCCC(=O)O` [GABA], for which the “Response of cells … Insect TRPV cells” value in assay [1] (setting [4]) is on record as 68 fluorescence units. For the same molecule, the “Response of cells … mTRPV4 cells” value in assay [3] (setting [6]) stood at 43 fluorescence units. Also, in assay [2] (setting [5]), the “Response of cells … Parental CHO cells” value was 100 fluorescence units.

With `CC(C)C[C@H](NC(=O)c1cc2ccccc2s1)C(=O)N1CCN(C(=O)[C@H](CO)NS(=O)(=O)c2ccc(Cl)cc2Cl)CC1` [GSK1016790A, N-((1 S)-1-{[4-((2 S)-2-{[(2,4-dichlorophenyl)sulfonyl]amino}-3-hydroxypropanoyl)-1-piperazinyl]carbonyl}-3-methylbutyl)-1-benzothiophene-2-carboxamide], the “Response of cells … Insect TRPV cells” value in assay [1] (setting [4]) is recorded as 53 fluorescence units. Further, the “Ca2+ mobilization in cells expressing mTRPV4, in words” value in assay [3] is listed as “induced strong Ca^2+ mobilization response; also recorded: strong activation”. The “Response of cells … mTRPV4 cells” value in assay [3] (setting [6]) was determined as 2017 fluorescence units. Further, in assay [2] (setting [5]), the “Response of cells … Parental CHO cells” value is on record as 71 fluorescence units.

`O=[N+]([O-])NC1=NCCN1Cc1ccc(Cl)nc1` [Imidacloprid]: in assay [1] (setting [4]), the “Response of cells … Insect TRPV cells” value worked out at 42 fluorescence units. Besides, the “Response of cells … mTRPV4 cells” value in assay [3] (setting [6]) worked out at 16 fluorescence units. Besides, in assay [2] (setting [5]), the “Response of cells … Parental CHO cells” value is 69 fluorescence units.

`Cl[C@H]1[C@H](Cl)[C@@H](Cl)[C@@H](Cl)[C@H](Cl)[C@H]1Cl` [Lindane]: in assay [1] (setting [4]), the “Response of cells … Insect TRPV cells” value is 35 fluorescence units. Moreover, the “Response of cells … mTRPV4 cells” value in assay [3] (setting [6]) is recorded as 12 fluorescence units. Further, the “Response of cells … Parental CHO cells” value in assay [2] (setting [5]) is 19 fluorescence units.

Consider `CN1CCN2c3ccccc3Cc3ccccc3C2C1` (centres unmarked) [Miansenn], for which the “Response of cells … Insect TRPV cells” value in assay [1] ([…]) is on record as 86 fluorescence units. For the same molecule, the “Response of cells … mTRPV4 cells” value in assay [3] (setting [6]) amounted to 30 fluorescence units. For the same molecule, the “Response of cells … Parental CHO cells” value in assay [2] (setting [5]) was 110 fluorescence units.

Regarding `c1ccc2c(CC3=NCCN3)cccc2c1` [Naphazoline], the “Response of cells … Insect TRPV cells” value in assay [1] (setting [4]) came to 31 fluorescence units. In addition, the “Response of cells … mTRPV4 cells” value in assay [3] (setting [6]) was 11 fluorescence units. Also, in assay [2] (setting [5]), the “Response of cells … Parental CHO cells” value stood at 50 fluorescence units.

For the molecule `CN1CCCC1c1cccnc1` (centres unmarked) [Nicotine], the “Response of cells … Insect TRPV cells” value in assay [1] (setting [4]) was determined as 81 fluorescence units. Moreover, the “Response of cells … mTRPV4 cells” value in assay [3] is recorded as 8 fluorescence units. The “Response of cells … Parental CHO cells” value in assay [2] stood at 65 fluorescence units.

For `NCC(O)c1ccc(O)cc1` (centres unmarked) [Octopamine], in assay [1] (setting [4]), the “Response of cells … Insect TRPV cells” value is given as 66 fluorescence units. In assay [3] (setting [6]), the “Response of cells … mTRPV4 cells” value is on record as 20 fluorescence units. Besides, the “Response of cells … Parental CHO cells” value in assay [2] (setting [5]) amounted to 45 fluorescence units.

Turning to `O=C1Nc2ccc(C(F)(C(F)(F)F)C(F)(F)F)cc2CN1NCc1cccnc1` [Pyrifluquinazon metabolite B], in assay [1], the “Potency relative to the parental compound pyrifluquinazon” value is reported as “about 100 fold”; the “Ca2+ mobilization in cells co-expressing Nan and Iav (insect TRPV channel), in words” value was “activation of insect TRPV channel”; the “Dependence of the cell response on Ca2+ in the extracellular media” value is reported as “requires presence of Ca^2+ in the extracellular media”. Also, in assay [1] (setting [7]), the “Ca2+ mobilization in cells co-expressing Nan and Iav (insect TRPV channel), in words” value was “triggered Ca^2+ mobilization”. Moreover, the “Response of cells … Insect TRPV cells” value in assay [1] (setting [4]) was 538 fluorescence units. In assay [3], the “Potency against mouse TRPV4 relative to Drosophila TRPV channel” value is approximately 100 fold and the “Ca2+ mobilization in cells expressing mTRPV4, in words” value is given as “weak activation”. In addition, the “Ca2+ mobilization in cells expressing mTRPV4, in words” value in assay [3] (setting [7]) is given as “did trigger Ca^2+ mobilization”. In addition, the “Response of cells … mTRPV4 cells” value in assay [3] (setting [6]) amounted to 346 fluorescence units. Besides, the “Response of cells … Parental CHO cells” value in assay [2] (setting [5]) amounted to 40 fluorescence units.

For `N.N.N.N.N.N.N.N.N.N.N.N.N.N.[Cl-].[Cl-].[Cl-].[Cl-].[Cl-].[Cl-].[O-2].[O-2].[Ru+3].[Ru+3].[Ru+4]` [Ruthenium red], the figures for the “Inhibition of stimulation of the insect TRPV channel” value in assay [1] and in assay [1] (listed as ruthenium red) were “inhibited” and “inhibition of the response”, respectively.

Regarding `CNC(=O)c1cc(Cl)cc(C)c1NC(=O)c1cc(Br)nn1-c1ncccc1Cl` [Rynaxapyr], the “Response of cells … Insect TRPV cells” value in assay [1] (setting [4]) stood at 43 fluorescence units. The “Response of cells … mTRPV4 cells” value in assay [3] (setting [6]) is given as 74 fluorescence units. The “Response of cells … Parental CHO cells” value in assay [2] (setting [5]) came to 93 fluorescence units.

As to `N#C/N=C1\SCCN1Cc1ccc(Cl)nc1` [Thiacloprid], the “Response of cells … Insect TRPV cells” value in assay [1] (setting [4]) came to 36 fluorescence units. Moreover, the “Response of cells … mTRPV4 cells” value in assay [3] (setting [6]) is 16 fluorescence units. Besides, the “Response of cells … Parental CHO cells” value in assay [2] (setting [5]) is 29 fluorescence units.

`CC1=NNC(=O)N(/N=C/c2cccnc2)C1` [pymetrozine]: the “Ca2+ mobilization in cells co-expressing Nan and Iav (insect TRPV channel), in words” value in assay [1] is listed as “triggered Ca^2+ mobilization; also recorded: activation of insect TRPV channel”; in assay [1] (listed as Pymetrozine), “triggered Ca^2+ mobilization”. Also, the “Ca2+ mobilization in cells expressing mTRPV4, in words” value in assay [3] (listed as Pymetrozine) was “had no effect”.

Regarding `CC(=O)N1C(=O)N(NCc2cccnc2)Cc2cc(C(F)(C(F)(F)F)C(F)(F)F)ccc21` [pyrifluquinazon], in assay [1], the “Ca2+ mobilization in cells co-expressing Nan and Iav (insect TRPV channel), in words” value is on record as “triggered Ca^2+ mobilization”; the “Dependence of the cell response on Ca2+ in the extracellular media” value is “absolutely dependent on the presence of Ca^2+ in the extracellular media”.

On to Abamectin, for which the “Response of cells … Insect TRPV cells” value in assay [1] (setting [4]) is reported as 49 fluorescence units. In assay [3] (setting [6]), the “Response of cells … mTRPV4 cells” value was 30 fluorescence units. For the same molecule, the “Response of cells … Parental CHO cells” value in assay [2] (setting [5]) is given as 52 fluorescence units.

Regarding Ryanodine, the “Response of cells … Insect TRPV cells” value in assay [1] ([…]) stood at 53 fluorescence units. The “Response of cells … mTRPV4 cells” value in assay [3] (setting [6]) is on record as 19 fluorescence units. Further, in assay [2] (setting [5]), the “Response of cells … Parental CHO cells” value is listed as 75 fluorescence units.
